Some test systems named below: ACHN; M14; UACC-62; NCI-H226; HCC 2998; SF-295; OVCAR-5; A498; A549; UACC-257; SW-620; OVCAR-4; UO-31; SF-268; OVCAR-3; U-251; SNB-19; SK-OV-3; EKVX; LOX IMVI.
Assay in all cases: NCI anticancer screen, dose series, 48 h

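Grown in 96-well plates, cells were treated for 48 hours with each compound at five concentrations. Insufficient inhibition: endpoint recorded as highest concentration tested. The concentration for 50% growth inhibition is given as GI50.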 Activity calls are given as the source filed them. Rule as the data show it: active = GI50 up to about 1.1 µM and inactive = higher. A value given as a limit tells only on which side of the number the result lay.

With `Nc1nc(Cl)cc(NCCCCO)n1`, the GI50 with ACHN was > 100 µM (inactive); in the experiment on M14, > 10 µM (inactive); in the experiment on UACC-62, > 100 µM (inactive); in the experiment on NCI-H226, > 100 µM (inactive); in the experiment on HCC 2998, > 100 µM (inactive); in the experiment with SF-295, > 100 µM (inactive). The GI50 in the experiment on OVCAR-5, with A498, in the experiment with A549, with UACC-257, in the experiment on SW-620 and with OVCAR-4 was > 100 µM (inactive) each time. In addition, the GI50 in the experiment on UO-31 is > 100 µM (inactive); with SF-268, > 100 µM (inactive); with OVCAR-3 it was > 10 µM (inactive); with U-251, > 100 µM (inactive); in the experiment with SNB-19, > 100 µM (inactive); with SK-OV-3 it was > 100 µM (inactive). Further, the GI50 with EKVX and with LOX IMVI was > 100 µM (inactive) throughout.
For the compound `O=[N+]([O-])/C(C(Cl)=C(Cl)Cl)=C1\Nc2ccccc2O1`, the GI50 is 35.8 µM (inactive) in the experiment with ACHN; > 100 µM (inactive) in the experiment with M14; 9.16 µM (inactive) in the experiment with UACC-62; 27.5 µM (inactive) in the experiment on NCI-H226; > 100 µM (inactive) with HCC 2998; > 100 µM (inactive) with SF-295. The GI50 in the experiment on OVCAR-5 is > 100 µM (inactive); in the experiment on A498, > 100 µM (inactive); in the experiment with A549 it was 37.7 µM (inactive); with UACC-257, > 100 µM (inactive); in the experiment on SW-620, > 100 µM (inactive); in the experiment with OVCAR-4 it was 33.8 µM (inactive). Also, the GI50 with UO-31 was 14.5 µM (inactive); in the experiment on SF-268 it was > 100 µM (inactive); in the experiment on OVCAR-3, 23.4 µM (inactive); in the experiment with U-251, > 100 µM (inactive); with SNB-19, > 100 µM (inactive); in the experiment on SK-OV-3 it was > 100 µM (inactive). Moreover, the GI50 with EKVX and in the experiment on LOX IMVI was > 100 µM (inactive) throughout.
Regarding `C[C@@H](NC(=O)[C@@H]1C[C@]1(C)COC(=O)c1cc([N+](=O)[O-])cc([N+](=O)[O-])c1)c1cccc2ccccc12`, the GI50 was 33.7 µM (inactive) in the experiment on ACHN; > 100 µM (inactive) in the experiment with M14; 50 µM (inactive) in the experiment with UACC-62; > 100 µM (inactive) in the experiment with NCI-H226; > 100 µM (inactive) with HCC 2998; 93.5 µM (inactive) with SF-295. For the same compound, the GI50 in the experiment with OVCAR-5, with A498, in the experiment with A549, in the experiment with UACC-257, in the experiment on SW-620 and in the experiment with OVCAR-4 was > 100 µM (inactive) throughout. For the same compound, the GI50 was > 100 µM (inactive) in the experiment with UO-31; > 100 µM (inactive) with SF-268; 24.3 µM (inactive) in the experiment with OVCAR-3; 99.3 µM (inactive) in the experiment with U-251; > 100 µM (inactive) with SNB-19; > 100 µM (inactive) in the experiment with SK-OV-3. Moreover, the GI50 with EKVX was > 100 µM (inactive); with LOX IMVI, 60.1 µM (inactive).
On to `COn1oc(=O)c2ccccc21`, for which the GI50 with ACHN, in the experiment on M14, in the experiment with UACC-62, in the experiment with NCI-H226, in the experiment on HCC 2998 and with SF-295 was > 100 µM (inactive) in each case. Also, the GI50 in the experiment with OVCAR-5, in the experiment with A498, with A549, with UACC-257, with SW-620 and with OVCAR-4 was > 100 µM (inactive) throughout. Also, the GI50 with UO-31, in the experiment on SF-268, in the experiment with OVCAR-3, in the experiment on U-251, in the experiment on SNB-19 and in the experiment with SK-OV-3 was > 100 µM (inactive) throughout. Further, the GI50 with EKVX and with LOX IMVI was > 100 µM (inactive) in each case.
As to `Cc1c(N)nc([C@H](CC(N)=O)NC[C@H](N)C(N)=O)nc1C(=O)N[C@H](C(=O)N[C@H](C)[C@@H](O)CC(=O)N[C@H](C(=O)NC(O[C@@H]1O[C@@H](C)[C@@H](N)[C@@H](O)[C@H]1O)C(O)c1nc(-c2nc(C(=O)NCCCCN)cs2)cs1)[C@@H](C)O)[C@@H](O[C@@H]1O[C@@H](CO)[C@@H](O)[C@H](O)[C@@H]1O[C@H]1O[C@H](CO)[C@@H](O)[C@H](OC(N)=O)[C@@H]1O)c1c[nH]cn1` (stereo not given in full), the GI50 in the experiment on ACHN is 0.223 µM (active); in the experiment with M14 it was > 36.9 µM (inactive); in the experiment with UACC-62, 11.9 µM (inactive); in the experiment with NCI-H226, 0.216 µM (active); in the experiment on HCC 2998 it was 0.134 µM (active); in the experiment with SF-295, 1.14 µM (inactive). The GI50 in the experiment with OVCAR-5 was > 50 µM (inactive); in the experiment with A498 it was > 50 µM (inactive); in the experiment on A549, 18.7 µM (inactive); in the experiment on UACC-257, > 50 µM (inactive); in the experiment on SW-620, > 50 µM (inactive); in the experiment with OVCAR-4 it was > 50 µM (inactive). Further, the GI50 in the experiment with UO-31 was 3.78 µM (inactive); with SF-268, 16.1 µM (inactive); in the experiment on OVCAR-3 it was > 48.1 µM (inactive); in the experiment with U-251, > 50 µM (inactive); in the experiment on SNB-19 it was > 50 µM (inactive); in the experiment with SK-OV-3 it was > 50 µM (inactive). Also, the GI50 was > 50 µM (inactive) in the experiment on EKVX and 2.89 µM (inactive) in the experiment with LOX IMVI.

(Values after ChEMBL document CHEMBL1201862, “PubChem BioAssay data set” (2004).)
